Entries after “also recorded” stand apart in the source; their conditions may differ.
Experiments:
[1] = test system: antibody forming cells against sheep erythocytes (SRBC); test: Antibody forming cells against sheep erythocytes (SRBC) in mice, plaque count; assay type: in vivo; settings: four days after SRBC, thirty mice per data point
Description: Activity of Hepreceptor Peptides Enhancing the Antibody-Dependent Cytotoxic Response in […] to Sheep Red Blood Cells (SRBC) in Mice
The influence of Hepreceptor peptides on the activation of antibody forming cells against sheep erythocytes (SRBC) in Mice (CBA-C57B1 Fi hybrids. 2 months old, weight 18-22 grams) was determined. Mice were first injected intraperitoneally using either 0.5 ml sterile saline as a control or Hepreceptor peptides in the same volume of saline. 30 minutes after the injection of Hepreceptor peptides, a cell suspension containing 5 million SRBC was administered intraperitoneally to each mouse. Four days after the immunisation, the mice were killed by cervical dislocation and the spleens were obtained aseptically. Each spleen was homogenised in 2 ml of Medium 199, then 100 microliters of this suspension was put into 1 ml of prepared agarose in Medium 199 (stored in water bath at 48° C.), SRBC suspension was added, resulting in a final concentration of 1% agarose. The Im1 of agarose-cell mixture was agitated then transferred to petri dish to set. When the agarose became solid, the petri dish was incubated for 1 hour at 37° C. then 0.5 ml of 1-in-20 diluted guinea pig serum in Medium 199 was added on top of agarose gel as a source of complement. The incubation was continued for another 1 hour. The dishes were then visualised using an 8×binocular microscope and the number of plaques counted (each plaque equivalent to one antibody secreting mouse spleen cell). The results were expressed both as the number of antibody secreting cells per one million nucleated spleen cells and the number of antibody secreting cells per whole spleen.
Averaged data (from thirty mice per data point) of the number of antibody forming cells per one million nucleated spleen cells. The data was re-based relative to 100 for each control group.

[2] = test system: IgG serum antibody response to Ovalbumin; test: Adjuvant activity: IgG serum antibody response to Ovalbumin in mice; assay type: in vivo; settings: for IgG response recorded as OD: 50 micrograms Ovalbumin, two weeks, sera 1 to 100; for IgG response recorded as OD then rebased relative to 100 for each control: control = 100
Description: Adjuvant Activity of Hepreceptor Peptides Enhancing the IgG Serum Antibody Response to Ovalbumin in Mice
The IgG response in mice two weeks after an injection of 50 micrograms of Ovalbumin plus various concentrations of different hepreceptor peptides was determined. IgG response was measured by Optical Density (OD) of a 1 to 100 dilution of mouse sera in the presence of Ovalbumin.
IgG response recorded as OD
IgG response recorded as OD then data rebased relative to 100 for each control

IL-8 = IL-8 production in human WBC; assay type: cell-based; settings: 48 hour incubation, without peptide 18900
Description: The suppressive effect of increasing concentrations of Rupe312, a Hepreceptor peptide, on the expression of IL-8 by human WBC after a 48 hour incubation at 37° C. was detected. IL-8 is a chemotactic factor that is produced in response to inflammatory stimulus which attracts and activates T cells, neutrophils, basophils, granulocytes but not monocyte/macrophages. The inhibition of IL-8 may play a role in the selective activity of Rupe 312 in activating monocytes macrophages. The measurement of IL-8 provides an assay for determining the activity of various Hepreceptor derived peptides.

[3] = test system: HLA Class I on human White Blood Cells; test: Expression of MHC (HLA) Class I on human White Blood Cells; assay type: cell-based; settings: 0.003 micrograms per ml
From the text: A cell specific effect of this activation was an increase in the population of monocytes expressing MHC Class I and a decrease in the population of CD8 lymphocytes expressing MHC Class I.

activated macrophages = test: Induction of activated macrophages in mice (peritoneal exsudate); assay type: in vivo
Description: Groups of three mice (CDAxC57B1)F1 weighing 22-24 g were injected abdominally with each peptide solution of 1.0 microgram of peptide dissolved in 0.5 ml of physiological saline. After 24 hours the animals were killed using neck vertebrae dislocation and 5 ml of Hanks solution was injected into the abdomen. The abdomen was massaged for 30 seconds and then the peritoneal liquid was collected. The collected liquid was filtered using a nylon filter into siliconised tubes containing 1.5 mg/ml EDTA. The number of nucleus containing cells in […] of filtrate were then assessed under microscopic examination using a Nihon hemocytometer. The cells were pelleted by centrifugation for 5 minutes at 800 g, the pellet was resuspended in fetal calf serum, the cell suspension was dropped on to a glass microscope slide and dried then fixed in methanol and stained with Romanovski's colouring agent. Morphological analysis of the cells of the peritoneal exsudate were performed using an Opton optical microscope at 1600 magnifications. The number of lymphocytes, resting macrophages, activated macrophages, granulocytes and other cell types were assessed.

[4] = test system: human Peripheral Blood Mononuclear Cells; test: In vitro activation of human PBMC, tritiated thymidine incorporation; assay type: cell-based; settings: for incorporation of 3H thymidine: three days, Control 370
Description: Peripheral Blood Mononuclear Cells (PBMC) were separated from the peripheral blood of a […] donor using the standard method of fractionation in a ficoll gradient. The PBMC were suspended in culture medium containing RPMI1640 medium plus 10% fetal calf serum, 1 mM L-glutamin and antibiotics (BM). The cell suspension was placed in wells of a 96 hole microwell plate for cell cultivation, (100 microliters of suspension containing 100,000 cells per well). […] The negative control well contained BM but no peptide. The plate was incubated at 37° C. for three days then radioactive ^3H thymidine was added to a final concentration of 1 microcurie per ml. The incorporation of ^3H thymidine into the DNA of the cells was measured using a betacounter using standard procedures. The experiment was repeated twice and the results expressed as an average of the two experiments in radioactive counts per minute.

[5] = test system: transplanted sarcoma of the uterus SM-322; test: Transplanted mouse sarcoma SM-322 model; assay type: in vivo, CBA mice; settings: control 12-16
[6] = IP injection 1 microgram per mouse
[7] = IP injection 10 micrograms per mouse
[8] = IP injection 0.01 micrograms per mouse
[9] = IP injection 0.1 micrograms per mouse

Sequence: KKRRETVERE (Hepreceptor peptide) [Rupe312]
- number of antibody forming cells per one million nucleated spleen cells, re-based relative to 100 for control [1, 6]: 317
- number of antibody forming cells per one million nucleated spleen cells, re-based relative to 100 for control [1, 7]: 267
- IgG response recorded as OD [2, 8]: 0.68 OD
- IgG response recorded as OD then rebased relative to 100 for each control [2, 8]: 99
- IgG response recorded as OD [2, 9]: 0.88 OD
- IgG response recorded as OD then rebased relative to 100 for each control [2, 9]: 128
- IgG response recorded as OD [2, 6]: 0.55 OD
- IgG response recorded as OD then rebased relative to 100 for each control [2, 6]: 80
- IgG response recorded as OD [2, 7]: 0.44 OD
- IgG response recorded as OD then rebased relative to 100 for each control [2, 7]: 64
- IL-8 concentration in culture (IL-8; Rupe312 0.001 micrograms/ml): 13900 picrograms/ml
- IL-8 concentration in culture (IL-8; Rupe312 0.003 micrograms/ml): 10700 picrograms/ml
- IL-8 concentration in culture (IL-8; Rupe312 0.01 micrograms/ml): 8984 picrograms/ml
- IL-8 concentration in culture (IL-8; Rupe312 0.03 micrograms/ml): 7869 picrograms/ml
- IL-8 concentration in culture (IL-8; Rupe312 0.1 micrograms/ml): 6426 picrograms/ml
- relative activity in lowering intensity of HLA expression on WBC ([3]; 24 hours): more active than Rupe 414
- Density of cell surface expression of HLA Class I, rebased to 100 for control ([3]; B and NK cells, 24 hours): 73
- Percentage of cell population expressing HLA Class I, rebased to 100 for control ([3]; B and NK cells, 24 hours): 105
- Density of cell surface expression of HLA Class I, rebased to 100 for control ([3]; CD4 lymphocytes, 24 hours): 70
- Percentage of cell population expressing HLA Class I, rebased to 100 for control ([3]; CD4 lymphocytes, 24 hours): 104
- Density of cell surface expression of HLA Class I, rebased to 100 for control ([3]; CD8 lymphocytes, 24 hours): 72
- Percentage of cell population expressing HLA Class I, rebased to 100 for control ([3]; CD8 lymphocytes, 24 hours): 85
- Density of cell surface expression of HLA Class I, rebased to 100 for control ([3]; Granulocytes, 24 hours): 81
- Percentage of cell population expressing HLA Class I, rebased to 100 for control ([3]; Granulocytes, 24 hours): 98
- Percentage of cell population expressing HLA Class I, rebased to 100 for control ([3]; Monocytes/Macrophages, 24 hours): 119
- Density of cell surface expression of HLA Class I, rebased to 100 for control ([3]; Monocytes/Macrophages, 24 hours at 37° C.): 71
- activity in increasing activated macrophages relative to HEP1 (activated macrophages; 1.0 microgram peptide/mouse): significantly more active than HEP1
- Activated macrophages as a percent of total number of cells (activated macrophages; 1.0 microgram peptide/mouse injected abdominally, after 24 hours, saline 1.9): 13.9%
- activity relative to HEP1 ([4]; PBMC activation, thymidine incorporation): significantly more active than HEP1; also recorded: ten fold higher activity than HEP1
- concentration of peak activity ([4]; PBMC proliferation): around 3 nanograms/ml
- incorporation of 3H thymidine ([4]; Peptide 0.0001 micro g/ml): 563 radioactive counts per minute
- incorporation of 3H thymidine ([4]; Peptide 0.0003 micro g/ml): 742 radioactive counts per minute
- incorporation of 3H thymidine ([4]; Peptide 0.001 micro g/ml): 976 radioactive counts per minute
- incorporation of 3H thymidine ([4]; Peptide 0.003 micro g/ml): 3222 radioactive counts per minute
- incorporation of 3H thymidine ([4]; Peptide 0.01 micro g/ml): 656 radioactive counts per minute
- incorporation of 3H thymidine ([4]; Peptide 0.03 micro g/ml): 539 radioactive counts per minute
- incorporation of 3H thymidine ([4]; Peptide 0.1 micro g/ml): 533 radioactive counts per minute
- incorporation of 3H thymidine ([4]; Peptide 0.3 micro g/ml): 611 radioactive counts per minute
- incorporation of 3H thymidine ([4]; Peptide 1 micro g/ml): 472 radioactive counts per minute
- incorporation of 3H thymidine ([4]; Peptide 3 micro g/ml): 455 radioactive counts per minute
- incorporation of 3H thymidine ([4]; Peptide 10 micro g/ml): 405 radioactive counts per minute
- Days of life expectancy ([5]; 0.1 Microg/mouse IP twice weekly): 12 to 22 days
- Days of life expectancy ([5]; 1 Microg/mouse IP twice weekly): 12 to 19 days
- Days of life expectancy ([5]; 10 Microg/mouse IP twice weekly): 12 to 27 days
